Measurements published in PMC6792352, “Limited Chemical Structural Diversity Found to Modulate Thyroid Hormone Receptor in the Tox21 Chemical Library” (Environmental Health Perspectives, 2019).
Where a name gives a salt, the structure may show the parent alone. Read-outs that look alike come from different tables or passages of the source.

Assays:
[1] = system: thyroid hormone receptor (endogenous TRα and TRβ); assay: GH3-TRE-Ag primary qHTS, luciferase reporter, agonist mode (TOX21_TR_LUC_GH3_Agonist, aeid 803); type: cell-based, rat
in vitro = settings: rat, gh3-tre-luc cells, AC50 (uM) modified / 1000
GH3-TRE-Luc cell line = settings: read-out: AC50 (uM) modified / 1000, viability, 1 nM T3 present, 24 h
[2] = aeid 803 TOX21_TR_LUC_GH3_Agonist, tcpl output

N[C@@H](Cc1cc(I)c(O)c(I)c1)C(=O)O [3,5-diiodo-L-tyrosine]
activity in GH3-TRE agonist assay [1]: completely inactive | max_mean [1]: 0.9106 percent_activity | max_med ([1]; aeid 803, at max_med_conc (log) -0.39794, coff 20): 0.5533 percent_activity | hitc ([1]; aeid 803 TOX21_TR_LUC_GH3_Agonist, modl cnst): 0 | resp_max [1, 2]: 3.287 percent_activity | resp_min [1, 2]: -1.703 percent_activity | CC50 at 24 h (in vitro): > 50 µM

O=C([O-])[C@H](O)[C@@H](O)[C@H](O)[C@H](O)CO.O=C([O-])[C@H](O)[C@@H](O)[C@H](O)[C@H](O)CO.[Ba+2] [D-Gluconic acid, barium salt]
resp_max (maximum response value) ([1]; Table S2, aeid 803, per sample): 3.109 percent_activity | hitc ([1]; Table S2, aeid 803, tcpl hit call): 0 | hitc_modified ([1]; Table S2, aeid 803, final hitc after manual review): 0 | AC50 ([1]; Table S2, aeid 803, inactive set to 1000, read-out: AC50 (uM) modified): > 50 µM

CC(C)N(C(=O)CCl)c1ccccc1 [Propachlor]
CC50 (GH3-TRE-Luc cell line; Tox21_110001=Tox21_303036): 54.1 µM | CC50 at 24 h (in vitro): 48.7 µM

C#CCOS(=O)OC1CCCCC1Oc1ccc(C(C)(C)C)cc1 (centres unmarked) [Propargite]
CC50 (GH3-TRE-Luc cell line; Tox21_110001=Tox21_300805): 7.01 µM | CC50 at 24 h (in vitro): 5.83 µM

CC(C)=CC1C(C(=O)OCc2coc(Cc3ccccc3)c2)C1(C)C (centres unmarked) [Resmethrin]
CC50 (GH3-TRE-Luc cell line; Tox21_110001=Tox21_300920): 55.3 µM | CC50 at 24 h (in vitro): > 90 µM

Oc1ccc(/C=C/c2cc(O)cc(O)c2)cc1 [Resveratrol]
CC50 (GH3-TRE-Luc cell line; Tox21_110001=Tox21_303376): 36.1 µM | CC50 at 24 h (in vitro): 35 µM

CC(=O)OC/C=C(C)/C=C/C=C(C)/C=C/C1=C(C)CCCC1(C)C [Retinol acetate]
CC50 (GH3-TRE-Luc cell line; Tox21_110001=Tox21_201423): 65.7 µM | CC50 at 24 h (in vitro): > 50 µM

CC1=C(/C=C/C(C)=C/C=C/C(C)=C/CO)C(C)(C)CCC1 [Retinol]
CC50 (GH3-TRE-Luc cell line; Tox21_110001=Tox21_300287): 85.7 µM | CC50 at 24 h (in vitro): 63.5 µM

CO[C@H]1/C=C/O[C@@]2(C)Oc3c(C)c(O)c4c(O)c(c(/C=N/N5CCN(C)CC5)c(O)c4c3C2=O)NC(=O)/C(C)=C\C=C\[C@H](C)[C@H](O)[C@@H](C)[C@@H](O)[C@@H](C)[C@H](OC(C)=O)[C@@H]1C [Rifampicin]
CC50 (GH3-TRE-Luc cell line; Tox21_110001=Tox21_111329): 24.2 µM | CC50 (GH3-TRE-Luc cell line; Tox21_110001=Tox21_300550): 32.4 µM | CC50 at 24 h (in vitro): 29.8 µM

O=C1NCCN1CCN1CCC(c2cn(-c3ccc(F)cc3)c3ccc(Cl)cc23)CC1 [Sertindole]
CC50 (GH3-TRE-Luc cell line; Tox21_110001=Tox21_113421): 6.74 µM | CC50 at 24 h (in vitro): 5.55 µM

CCCCCCCCCCCCc1ccccc1S(=O)(=O)O [Sodium dodecylbenzenesulfonate]
CC50 (GH3-TRE-Luc cell line; Tox21_110001=Tox21_300506): 77.4 µM | CC50 at 24 h (in vitro): 49.5 µM

O=C(CCCCCCC(=O)Nc1ccccc1)NO [Suberoylanilide hydroxamic acid]
CC50 (GH3-TRE-Luc cell line; Tox21_110001=Tox21_112605): 2.46 µM | CC50 at 24 h (in vitro): 2.15 µM

CC(C)(C)C(O)(CCc1ccc(Cl)cc1)Cn1cncn1 (centres unmarked) [Tebuconazole]
CC50 (GH3-TRE-Luc cell line; Tox21_110001=Tox21_300487): 57.7 µM | CC50 at 24 h (in vitro): 64.3 µM

Oc1cccc(-c2c3nc(c(-c4cccc(O)c4)c4ccc([nH]4)c(-c4cccc(O)c4)c4nc(c(-c5cccc(O)c5)c5ccc2[nH]5)CC4)C=C3)c1 [Temoporfin]
CC50 (GH3-TRE-Luc cell line; Tox21_110001=Tox21_113297): 11.2 µM | CC50 at 24 h (in vitro): 13.6 µM

CCNc1nc(NC(C)(C)C)nc(SC)n1 [Terbutryn]
CC50 (GH3-TRE-Luc cell line; Tox21_110001=Tox21_303141): 74.8 µM | CC50 at 24 h (in vitro): > 90 µM

C=CC(=O)OCCOCCOCCOCCOC(=O)C=C [Tetraethylene glycol diacrylate]
CC50 (GH3-TRE-Luc cell line; Tox21_110001=Tox21_202993): 17.8 µM | CC50 at 24 h (in vitro): 17.7 µM

CCN(CC)CCSC(=O)C(c1ccccc1)c1ccccc1 [Thiphenamil]
CC50 (GH3-TRE-Luc cell line; Tox21_110001=Tox21_111676): 30.2 µM | CC50 at 24 h (in vitro): 41 µM

CN(C)CCOc1ccc(/C(=C(/CCCl)c2ccccc2)c2ccccc2)cc1 [Toremifene citrate]
CC50 (GH3-TRE-Luc cell line; Tox21_110001=Tox21_111877): 11.4 µM | CC50 at 24 h (in vitro): 8.87 µM

COc1cc2c(cc1O)CCN[C@]21CS[C@@H]2c3c(OC(C)=O)c(C)c4c(c3[C@H](COC1=O)N1[C@@H]2[C@H]2c3c(cc(C)c(OC)c3O)C[C@@H]([C@@H]1O)N2C)OCO4 [Trabectedin]
CC50 (GH3-TRE-Luc cell line; Tox21_110001=Tox21_113236): 0.0049 µM | CC50 at 24 h (in vitro): 0.00433 µM

CC(C)N(C(=O)SCC(Cl)=C(Cl)Cl)C(C)C [Tri-allate]
CC50 (GH3-TRE-Luc cell line; Tox21_110001=Tox21_300671): 53.5 µM | CC50 at 24 h (in vitro): 55.9 µM

CCCCCCCCCCCCCC[P+](CCCC)(CCCC)CCCC [Tributyltetradecylphosphonium chloride]
CC50 (GH3-TRE-Luc cell line; Tox21_110001=Tox21_303556): 3.3 µM | CC50 at 24 h (in vitro): 2.96 µM

O=C(Nc1ccc(Cl)cc1)Nc1ccc(Cl)c(Cl)c1 [Triclocarban]
CC50 (GH3-TRE-Luc cell line; Tox21_110001=Tox21_112078): 3.75 µM | CC50 (GH3-TRE-Luc cell line; Tox21_110001=Tox21_300481): 3.32 µM | CC50 at 24 h (in vitro): 6.61 µM

CCCN(CCC)c1c([N+](=O)[O-])cc(C(F)(F)F)cc1[N+](=O)[O-] [Trifluralin]
CC50 (GH3-TRE-Luc cell line; Tox21_110001=Tox21_300918): 62.5 µM | CC50 at 24 h (in vitro): > 90 µM

O=c1n(CC2CO2)c(=O)n(CC2CO2)c(=O)n1CC1CO1 (centres unmarked) [Triglycidyl isocyanurate]
CC50 (GH3-TRE-Luc cell line; Tox21_110001=Tox21_111097): 26.2 µM | CC50 (GH3-TRE-Luc cell line; Tox21_110001=Tox21_300119): 33.9 µM | CC50 at 24 h (in vitro): 27.2 µM

O=P(OC(CCl)CCl)(OC(CCl)CCl)OC(CCl)CCl [Tris(1,3-dichloro-2-propyl) phosphate]
CC50 (GH3-TRE-Luc cell line; Tox21_110001=Tox21_300194): 36.6 µM | CC50 at 24 h (in vitro): 61.2 µM

Cc1c(C)c2c(c(C)c1O)CCC(C)(COc1ccc(CC3SC(=O)NC3=O)cc1)O2 (centres unmarked) [Troglitazone]
CC50 (GH3-TRE-Luc cell line; Tox21_110001=Tox21_112119): 41.3 µM | CC50 at 24 h (in vitro): 54.8 µM

CCOC(=O)C1=C[C@]2(CC)CCCN3CCc4c(n1c1ccccc41)[C@@H]32 [Vinpocetine]
CC50 (GH3-TRE-Luc cell line; Tox21_110001=Tox21_110839): 12 µM | CC50 at 24 h (in vitro): 22.7 µM

C=C1CC[C@H](O)C/C1=C/C=C1\CCC[C@]2(C)[C@@H]([C@H](C)CCCC(C)C)CC[C@@H]12 [Vitamin D3]
CC50 (GH3-TRE-Luc cell line; Tox21_110001=Tox21_111578): 24.3 µM | CC50 at 24 h (in vitro): 44.3 µM

CC1=C(/C=C/C(C)=C/C=C/C(C)=C/C(=O)O)C(C)(C)CCC1 [all trans-Retinoic acid]
CC50 (GH3-TRE-Luc cell line; Tox21_110001=Tox21_300305): 77.6 µM | CC50 at 24 h (in vitro): 71.8 µM

Clc1ccc(C(c2ccccc2Cl)C(Cl)Cl)cc1 (centres unmarked) [o,p'-DDD]
CC50 (GH3-TRE-Luc cell line; Tox21_110001=Tox21_110103): 41.9 µM | CC50 at 24 h (in vitro): 56.7 µM

Clc1ccc(C(c2ccccc2Cl)C(Cl)(Cl)Cl)cc1 (centres unmarked) [o,p'-DDT]
CC50 (GH3-TRE-Luc cell line; Tox21_110001=Tox21_300622): 39.9 µM | CC50 at 24 h (in vitro): 34 µM

Clc1ccc(C(c2ccc(Cl)cc2)C(Cl)Cl)cc1 [p,p'-DDD]
CC50 (GH3-TRE-Luc cell line; Tox21_110001=Tox21_300191): 35.5 µM | CC50 at 24 h (in vitro): 27.9 µM

ClC(Cl)=C(c1ccc(Cl)cc1)c1ccc(Cl)cc1 [p,p'-DDE]
CC50 (GH3-TRE-Luc cell line; Tox21_110001=Tox21_300109): 63.5 µM | CC50 at 24 h (in vitro): 48.6 µM

Cc1cc(C2(c3cc(C)c(O)cc3C)OS(=O)(=O)c3ccccc32)c(C)cc1O [p-Xylenol blue]
CC50 (GH3-TRE-Luc cell line; Tox21_110001=Tox21_303062): 47.5 µM | CC50 at 24 h (in vitro): 56.6 µM

NC(CO)(CO)CO [tromethamine]
activity in GH3-TRE agonist assay [1]: completely inactive | CC50 at 24 h (in vitro): > 90 µM
